Data set [1] concerns Mycobacterium avium 330/88. The data set is described as follows: MIC, micro method in Šula's semisynthetic medium, M. avium. Type of data set: cell-based.
In data set [2] the test system is Mtb H37Ra pVV2-dprE2. The data set is described as follows: microbe, parasite or virus in culture. Type of data set: cell-based. As to conditions: Mycobacterium tuberculosis, 672 h, 28 days.
For data set [3], the system named is Mtb 331/88 (i.e., H37Rv). Put plainly: MIC, micro method in Šula's semisynthetic medium, drug-susceptible Mtb. Type of data set: cell-based, Mycobacterium tuberculosis. Particulars: Mycobacterium tuberculosis, H37RV.
The subject of data set [4] is Mycobacterium kansasii 6509/96. The data set is described as follows: MIC, micro method in Šula's semisynthetic medium, M. kansasii clinical isolate. Format: cell-based. Particulars: read-out: MIC M. kansasii 6509/96.
Data set [5] relates to Mtb H37Ra pVV2-dprE1/dprE2. Put plainly: microbe, parasite or virus in culture. Format: cell-based. As to conditions: Mycobacterium tuberculosis, 672 h, 28 days.
The subject of data set [6] is Mtb H37Rv. Put plainly: Metabolic labeling with 14C acetate and TLC lipid analysis. As to conditions: 10× and 100× MIC, 14C acetate, 24 h.
For data set [7], the system named is Mtb H37Ra pVV2. The data set is described as follows: microbe, parasite or virus in culture. Format: cell-based. As to conditions: Mycobacterium tuberculosis, 672 h, 28 days.
In data set [8] the test system is Danio rerio embryos. The data set is described as follows: Fish embryo test (FET). Type of data set: in vivo. As to conditions: for mortality: as early as 48 h. How it is done: Fish maintenance. A day before the experiment, adult wild-type zebrafish (Danio rerio) were transferred into plastic spawning cages at the end of the 14-hour photoperiod. All fish were spawned at the onset of the following photoperiod. Fertilized eggs were collected within 30 minutes post-fertilization and inspected for health state and developmental stage using a stereomicroscope before exposure to 5g and 4h. Tested compounds were dissolved in DMSO; its concentration in 1 mM stock solution was 0.5%.
Fish embryo test (FET). Fish embryo tests were carried out using six different concentrations (0.001, 0.01, 0.1, 1, 10, and 100 μM) of each of the tested substances and controls over 96 hours at a constant temperature of 26.9°C (±1°C) under semi-static experimental set-up. The used medium was E3 according to Cold Spring Harbor Protocols (5 mM NaCl, 0.17 mM KCl, 0.33 mM CaCl2, 0.33 mM MgSO4). Each FET consists of 24 embryos per concentration, where each embryo is considered an individual replicate. Before the tests, all wells in the testing culture well plates were saturated by overnight incubation with corresponding concentrations of 5g and 4h. Before loading the embryos into the well plates, all solutions were replaced by freshly aerated ones with corresponding concentrations or controls. All solutions in the well plates were changed again after 48 hours of exposure to minimize a potential reduction in oxygen levels and compound concentration. Fish embryos were inspected and scored for mortality, morphological changes, or hatching success rates at 24-, 48-, 72-, and 96-hours post-exposure (hpe) under an inverted microscope (Olympus IX71; Olympus Czech Group, s.r.o., Czech Republic). […] In comparison, > 90% of the embryos in the positive control (3,4-dichloroaniline) were considered dead at the end of the 96-hour exposure. Morphological endpoints in our analysis were: (1) coagulation of fertilised eggs or developing embryos; (2) lack of somite formation; (3) lack of detachment of the tail bud from the yolk sac; (4) lack of heartbeat or heart defects (oedema); (5) malformations of body parts (head and tail region); (6) growth retardation. All morphological endpoints were used to determine the mortality (a positive endpoint means the embryo was considered dead).
For both compounds, the negative controls involved pure E3 medium and E3 medium containing 0.05% DMSO.

In data set [9] the test system is HepG2 cells. Put plainly: Cytotoxicity on HepG2 cell line (CellTiter 96). Particulars: Homo sapiens, HepG2, 24 h, read-out: IC50 HepG2. Format: cell-based, human.
The mark [10] stands for this setting: 330/88, 336 h, read-out: MIC M. avium 330/88.
The mark [11] stands for this setting: 330/88, 504 h, read-out: MIC M. avium 330/88.

In brackets after ≈: the same amount, converted by molar mass. Read-outs that look alike come from different tables or passages of the source. Where only a bound is given, the exact number is not on record here.

`CCCCCCCCCCCCNC(=S)NNC(=O)c1cc([N+](=O)[O-])cc([N+](=O)[O-])c1` [Compound 4s, 2-(3,5-Dinitrobenzoyl)-N-dodecylhydrazine-1-carbothioamide]: the MIC in data set [1] (setting [10]) is 16 µM (≈ 7.26 µg/mL); in data set [1] (setting [11]), 16 µM (≈ 7.26 µg/mL); in data set [2], 2 µM (≈ 0.907 µg/mL); in data set [3] (336 h, 14 days), 2 µM (≈ 0.907 µg/mL); in data set [3] (504 h, 21 days), 2 µM (≈ 0.907 µg/mL); in data set [4] (6509/96, 168 h) it was 1 µM (≈ 0.454 µg/mL). For the same molecule, the MIC in data set [4] (6509/96, 336 h) was 1 µM (≈ 0.454 µg/mL); in data set [4] (6509/96, 504 h) it was 2 µM (≈ 0.907 µg/mL); in data set [5], over 4 µM; in [7], 2 µM (≈ 0.907 µg/mL). Moreover, the “lipid profile of treated cells vs untreated cells” value (“lipid profile … vs untreated cells” for short) in data set [6] was “accumulation of TMM and TDM”.

As to `CCCCCCCCCCCCNc1nnc(-c2cc([N+](=O)[O-])cc([N+](=O)[O-])c2)s1` [Compound 5s, 5-(3,5-Dinitrophenyl)-N-dodecyl-1,3,4-thiadiazol-2-amine], the MIC was 64 µM (≈ 27.9 µg/mL) in [1] (setting [10]); 125 µM (≈ 54.4 µg/mL) in data set [1] (setting [11]); under 0.1 µM in [2]; 1 µM (≈ 0.436 µg/mL) in data set [3] (336 h, 14 days); 1 µM (≈ 0.436 µg/mL) in data set [3] (504 h, 21 days); 1 µM (≈ 0.436 µg/mL) in data set [4] (6509/96, 168 h). The MIC is 1 µM (≈ 0.436 µg/mL) in [4] (6509/96, 336 h); 1 µM (≈ 0.436 µg/mL) in [4] (6509/96, 504 h); 0.5 µM (≈ 0.218 µg/mL) in [5]; under 0.1 µM in [7]. Also, the “lipid profile … vs untreated cells” value in data set [6] is “accumulation of TMM and TDM”.

For orientation: mortality means the percentage killed. A higher mortality goes with fewer survivors. Broadly, the IC50 is the concentration that inhibits the measured activity by half. For `CCCCCCCNc1nnc(-c2cc([N+](=O)[O-])cc([N+](=O)[O-])c2)o1` [Compound 5g, 5-(3,5-Dinitrophenyl)-N-heptyl-1,3,4-oxadiazol-2-amine], the MIC was 4 µM (≈ 1.4 µg/mL) in data set [1] (setting [10]); 8 µM (≈ 2.79 µg/mL) in data set [1] (setting [11]); under 0.06 µM in [2]; at most 0.03 µM in data set [3] (336 h, 14 days); at most 0.03 µM in data set [3] (504 h, 21 days); at most 0.03 µM in [4] (6509/96, 168 h). Besides, the MIC in data set [4] (6509/96, 336 h) is 0.06 µM (≈ 0.021 µg/mL); in [4] (6509/96, 504 h), 0.125 µM (≈ 0.0437 µg/mL); in [5], over 0.3 µM; in data set [7], under 0.06 µM. Further, the “lipid profile … vs untreated cells” value in data set [6] is “accumulation of TMM and TDM”. In [8] (1 µM), the “mortality at 1 µM” value was “no significant mortality”. For the same molecule, the mortality in data set [8] (10 µM) and in data set [8] (100 µM) was 100% throughout. For the same molecule, the lethality in data set [8] (100 µM, end of the 96 hours) was found to be 100%. In addition, the observed lethal endpoints result in [8] (0.001–100 µM, 96-hour exposure) was “pericardial oedema at lower concentrations and by growth retardation at higher concentrations”. Besides, in [8] (whole exposure period), the “embryo coagulation, share of all observed endpoints” value is listed as over 25%. In addition, the IC50 in [9] is over 100 µM.

In the case of `CCCCNC(=O)NNC(=O)c1cc([N+](=O)[O-])cc([N+](=O)[O-])c1` [Compound 4d, N-Butyl-2-(3,5-dinitrobenzoyl)hydrazine-1-carboxamide], the MIC in [1] (setting [10]) is 1000 µM (≈ 325 µg/mL); in data set [1] (setting [11]), 1000 µM (≈ 325 µg/mL); in [3] (336 h, 14 days), 2 µM (≈ 0.651 µg/mL); in data set [3] (504 h, 21 days), 2 µM (≈ 0.651 µg/mL); in [4] (6509/96, 168 h) it was 2 µM (≈ 0.651 µg/mL); in data set [4] (6509/96, 336 h) it was 4 µM (≈ 1.3 µg/mL). The MIC in data set [4] (6509/96, 504 h) is 4 µM (≈ 1.3 µg/mL). Besides, in data set [9], the half-maximal inhibitory concentration (IC50) was 198 µM.

Take `CCCCCCCCCNC(=O)NNC(=O)c1cc([N+](=O)[O-])cc([N+](=O)[O-])c1` [Compound 4i, 2-(3,5-Dinitrobenzoyl)-N-nonylhydrazine-1-carboxamide]: the MIC in data set [1] (setting [10]) was 125 µM (≈ 49.4 µg/mL); in data set [1] (setting [11]), 250 µM (≈ 98.9 µg/mL); in data set [1] (330/88, read-out: MIC M. avium), 125 to 250 µM (≈ 49.4 to 98.9 µg/mL); in data set [3] (336 h, 14 days), 0.5 µM (≈ 0.198 µg/mL); in data set [3] (504 h, 21 days) it was 1 µM (≈ 0.395 µg/mL); in data set [4] (6509/96, 168 h) it was 1 µM (≈ 0.395 µg/mL). Moreover, the MIC in [4] (6509/96, 336 h) was 1 µM (≈ 0.395 µg/mL); in data set [4] (6509/96, 504 h), 1 µM (≈ 0.395 µg/mL). For the same molecule, the half-inhibitory concentration (IC50) in data set [9] is 125 µM.

Regarding `CCCCCCCCCCCCCNC(=O)NNC(=O)c1cc([N+](=O)[O-])cc([N+](=O)[O-])c1` [Compound 4m, 2-(3,5-Dinitrobenzoyl)-N-tridecylhydrazine-1-carboxamide], the MIC in [1] (setting [10]) is over 500 µM; in data set [1] (setting [11]), over 500 µM; in [3] (336 h, 14 days), 2 µM (≈ 0.903 µg/mL); in [3] (504 h, 21 days), 4 µM (≈ 1.81 µg/mL); in data set [4] (6509/96, 168 h), 2 µM (≈ 0.903 µg/mL); in [4] (6509/96, 336 h), 2 µM (≈ 0.903 µg/mL). In data set [4] (6509/96, 504 h), the MIC was 4 µM (≈ 1.81 µg/mL). Further, the concentration for half-maximal inhibition (IC50) in data set [9] came to 163 µM.

Source of the values: paper PMC12121777 (PLOS One, 2025).
